“Also recorded” adds a separate entry of the source. Positions of bridges follow the written chain, without caps; N, C: chain ends. Non-standard residues stand in square brackets, D forms with d. Chains are numbered I, II in the order given. No end group written: not given here. Gla = N[C@@H](CC(C(=O)O)C(=O)O)C(=O)O
target: T1, human insulin receptor-B (hIR-B) (Homo sapiens, UniProt P06213); assay: Competition binding to hIR-B against Eu-labeled human insulin
T1 construct: expressed in transfected cells; lysate captured on an anti-IR antibody-coated plate
Experimental: Receptor binding was measured as described previously. […] Cells were serum-starved for 4 hours before lysis. Lysates were captured in a 96-well plate previously coated with anti-IR antibody. […] After washing, time-resolved fluorescence was measured using 340-nm excitation and 612-nm emission filters with the BMG Lab Technologies Polarstar fluorometer.

T1 sequence (P06213 28-758 limits assumed): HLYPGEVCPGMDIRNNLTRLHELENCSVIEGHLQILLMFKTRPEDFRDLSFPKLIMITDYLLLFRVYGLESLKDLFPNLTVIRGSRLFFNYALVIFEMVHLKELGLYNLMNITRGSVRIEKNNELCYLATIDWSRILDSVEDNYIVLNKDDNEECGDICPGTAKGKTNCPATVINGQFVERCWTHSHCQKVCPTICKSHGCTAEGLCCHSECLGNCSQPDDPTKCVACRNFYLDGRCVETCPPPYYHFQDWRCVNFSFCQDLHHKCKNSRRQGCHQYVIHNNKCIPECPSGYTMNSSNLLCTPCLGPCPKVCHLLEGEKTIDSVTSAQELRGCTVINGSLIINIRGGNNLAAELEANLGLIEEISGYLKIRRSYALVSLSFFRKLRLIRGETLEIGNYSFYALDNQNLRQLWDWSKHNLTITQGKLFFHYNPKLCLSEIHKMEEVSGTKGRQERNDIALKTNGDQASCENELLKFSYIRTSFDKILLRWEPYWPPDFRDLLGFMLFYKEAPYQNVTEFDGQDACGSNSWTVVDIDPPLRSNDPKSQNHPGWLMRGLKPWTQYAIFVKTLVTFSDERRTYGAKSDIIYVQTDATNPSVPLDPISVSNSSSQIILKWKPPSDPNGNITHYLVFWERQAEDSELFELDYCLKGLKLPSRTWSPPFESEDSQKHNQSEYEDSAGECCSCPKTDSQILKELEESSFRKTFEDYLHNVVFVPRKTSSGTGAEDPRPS
T1 sequence (P06213 763-1382 limits assumed): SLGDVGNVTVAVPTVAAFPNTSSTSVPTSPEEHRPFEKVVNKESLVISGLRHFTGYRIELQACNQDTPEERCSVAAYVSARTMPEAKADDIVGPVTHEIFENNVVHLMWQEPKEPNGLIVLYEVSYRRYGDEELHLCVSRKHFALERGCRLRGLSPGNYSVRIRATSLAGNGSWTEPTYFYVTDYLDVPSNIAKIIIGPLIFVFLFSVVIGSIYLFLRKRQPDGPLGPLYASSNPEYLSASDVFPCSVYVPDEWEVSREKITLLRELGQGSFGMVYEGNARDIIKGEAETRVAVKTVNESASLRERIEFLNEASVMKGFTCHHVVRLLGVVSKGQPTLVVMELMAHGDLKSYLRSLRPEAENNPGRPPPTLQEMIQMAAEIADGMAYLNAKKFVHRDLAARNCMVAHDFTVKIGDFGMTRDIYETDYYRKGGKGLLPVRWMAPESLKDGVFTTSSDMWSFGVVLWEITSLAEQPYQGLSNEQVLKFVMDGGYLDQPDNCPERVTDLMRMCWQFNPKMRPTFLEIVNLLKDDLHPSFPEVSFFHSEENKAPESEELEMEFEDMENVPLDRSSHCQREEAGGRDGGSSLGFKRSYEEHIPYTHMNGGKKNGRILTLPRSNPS

Substance | hIR-B binding, result in words
I: NSDTPKHRCGSELADQYVYLCHGERNDA-NH2 / II: GIV[Gla]VCCDNPCTVATLRTFCH (disulfide I:9-II:7, I:21-II:20, II:6-II:11; C-terminus assumed) [Con-Ins G4b] | low nanomolar binding
I: NSDTPKHRCVSELADQYVQLCH-NH2 / II: GIV[Gla]VCCDNPCTVATLRTFCH (disulfide I:9-II:7, I:21-II:20, II:6-II:11; C-terminus assumed) [Con-Ins G3c] | completely abolishes hIR-B binding
I: TNIPATLILQKHRCGSELADQYVQLCH-NH2 / II: GIV[Gla]VCCDNPCTVATLRTFCH (disulfide I:14-II:7, I:26-II:20, II:6-II:11; C-terminus assumed) [Con-Ins G7] | potent hIR-B binding; also recorded: low nanomolar binding

Source: PMC12343078, “PeptideMiner—neuropeptide discovery across the animal kingdom” (GigaScience, 2025)
